This note sets out measurements from ChEMBL document CHEMBL1201862, “PubChem BioAssay data set” (2004).

Among the test systems are K562; UO-31; NCI-H460; RPMI-8226; HT-29; HL-60; RXF 393; OVCAR-5; LXFL 529; OVCAR-8; HCT-116; IGROV-1; SNB-19; NCI-H23; SK-MEL-5; HOP-92; T47D; MDA-MB-435; PC-3; Hs-578T.
Assay in all cases: NCI-60 cell line screen, 48 h

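Results reflect a 48-hour exposure of cells in 96-well plates to compound at five concentrations. At the GI50, growth is halved.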 Activity calls are given as the source filed them. No stated cut-off is given here; in the data, active = GI50 up to about 1.1 µM and inactive = higher.

With `COC(=O)[C@@H]1CSC(=S)N1C(=O)C[C@H]1CC=CC[C@H]1CC(=O)Sc1ccccc1`, the GI50 with K562 is 12.1 µM (inactive); in the test with UO-31, 13.8 µM (inactive); in the test on NCI-H460, 17.7 µM (inactive); in the test with RPMI-8226, 12.5 µM (inactive); in the test with HT-29 it was 19.8 µM (inactive); in the test with HL-60, 3.47 µM (inactive). For the same compound, the GI50 in the test on RXF 393 is 14.2 µM (inactive); in the test with OVCAR-5, 19.1 µM (inactive); in the test with LXFL 529 it was 15.3 µM (inactive); in the test on OVCAR-8, 21 µM (inactive); with HCT-116, 16.1 µM (inactive); in the test on IGROV-1 it was 19.8 µM (inactive). In addition, the GI50 in the test on SNB-19 is 18.2 µM (inactive); with NCI-H23 it was 21 µM (inactive).

Consider `O=C1NC(=O)C(C(=O)C(=O)Nc2cccc(C(F)(F)F)c2)C(=O)N1`, for which the GI50 in the test on K562, with UO-31, with NCI-H460, in the test on RPMI-8226, with HL-60 and in the test on SK-MEL-5 was > 100 µM (inactive) in each case. Also, the GI50 with RXF 393, in the test on OVCAR-5, in the test with LXFL 529, with OVCAR-8, in the test with HCT-116 and with IGROV-1 was > 100 µM (inactive) throughout. Further, the GI50 in the test on SNB-19 and in the test with NCI-H23 was > 100 µM (inactive) throughout.

With `CCN(CCCl)c1ccc(NC(=O)c2cc(C(=O)NCCN(C)C)cc(C(=O)Nc3ccc(N(CC)CCCl)cc3)c2)cc1`, the GI50 in the test with K562 is 2.09 µM (inactive); with UO-31 it was > 100 µM (inactive); in the test on HOP-92, 3.74 µM (inactive); with NCI-H460, 0.713 µM (active); in the test with RPMI-8226, 3.46 µM (inactive); with T47D it was 18.7 µM (inactive). Further, the GI50 was 1.57 µM (inactive) with HT-29; 0.0743 µM (active) in the test with HL-60; 8.32 µM (inactive) in the test with MDA-MB-435; 12.3 µM (inactive) in the test on SK-MEL-5; 5.41 µM (inactive) with RXF 393; 2.22 µM (inactive) in the test on PC-3. In addition, the GI50 in the test on OVCAR-5 was 16.5 µM (inactive); with OVCAR-8, 3.57 µM (inactive); in the test on HCT-116, 3.03 µM (inactive); in the test on IGROV-1 it was 6.43 µM (inactive); in the test on SNB-19, 1.36 µM (inactive); in the test with NCI-H23, 3.33 µM (inactive). For the same compound, the GI50 in the test on Hs-578T was 0.513 µM (active).

As for `CC(=O)OCC(OC(C)=O)C(OC(C)=O)C(OC(C)=O)C(=O)CNn1c(-c2ccc(C)cc2)nc2ccccc2c1=O` (stereo unspecified), the GI50 was > 100 µM (inactive) with K562; > 100 µM (inactive) with UO-31; > 100 µM (inactive) in the test with NCI-H460; 39.4 µM (inactive) with RPMI-8226; > 100 µM (inactive) with HT-29; 50 µM (inactive) in the test on HL-60. In addition, the GI50 with SK-MEL-5, in the test on RXF 393, with OVCAR-5, in the test with LXFL 529, with OVCAR-8 and in the test with HCT-116 was > 100 µM (inactive) in each case. Moreover, the GI50 in the test on SNB-19 and with NCI-H23 was > 100 µM (inactive) each time.

As for `Cc1nn(-c2ccccc2)c2nc(N3CCOCC3)nnc12`, the GI50 with K562 is > 100 µM (inactive); with UO-31, 28.6 µM (inactive); in the test on NCI-H460 it was > 100 µM (inactive); in the test with RPMI-8226, 46.6 µM (inactive); with HT-29, > 100 µM (inactive); with SK-MEL-5, 49.2 µM (inactive). Also, the GI50 with RXF 393 was > 100 µM (inactive); with OVCAR-5 it was > 100 µM (inactive); with LXFL 529, 53.3 µM (inactive); with OVCAR-8, 92.5 µM (inactive); in the test on HCT-116 it was > 100 µM (inactive); in the test on IGROV-1 it was > 100 µM (inactive). Further, the results for the GI50 with SNB-19 and with NCI-H23 were > 100 µM (inactive) and 79.6 µM (inactive), respectively.

For `N=C(CC(=O)Nc1ccccn1)c1ccccc1`, the GI50 in the test with K562, with UO-31, in the test with HOP-92, with NCI-H460, in the test on RPMI-8226 and with T47D was > 100 µM (inactive) each time. In addition, the GI50 in the test with HT-29, with HL-60, in the test on MDA-MB-435, in the test on SK-MEL-5, in the test with RXF 393 and in the test with PC-3 was > 100 µM (inactive) in each case. Moreover, the GI50 in the test with OVCAR-5, with OVCAR-8, with HCT-116, in the test on IGROV-1, in the test with SNB-19 and in the test with NCI-H23 was > 100 µM (inactive) throughout. In addition, the GI50 in the test on Hs-578T is > 100 µM (inactive).

Consider `Cc1c2c(c(C)c3c[n+](C)ccc13)Oc1ccccc1O2`, for which the GI50 with K562 was 3.59 µM (inactive); in the test with UO-31 it was 94.4 µM (inactive); with HOP-92, 34.8 µM (inactive); with NCI-H460, 3.4 µM (inactive); in the test with RPMI-8226, 1.88 µM (inactive); in the test with T47D, 2.57 µM (inactive). Further, the GI50 with HT-29 was 20 µM (inactive); in the test on HL-60, 13.3 µM (inactive); in the test on MDA-MB-435 it was 15.1 µM (inactive); with SK-MEL-5, 4.32 µM (inactive); in the test with RXF 393, 34.7 µM (inactive); in the test with PC-3 it was 16.3 µM (inactive). For the same compound, the GI50 was 18.2 µM (inactive) in the test on OVCAR-5; 6.05 µM (inactive) in the test with OVCAR-8; 22.8 µM (inactive) in the test with HCT-116; 13.9 µM (inactive) with IGROV-1; 1.74 µM (inactive) in the test with SNB-19; 6.9 µM (inactive) in the test on NCI-H23. The GI50 in the test on Hs-578T was 3.13 µM (inactive).

Take `COC(=O)C(Cc1ccccc1)NC(=O)c1ccc(CNC(=S)NCc2cccc(CNC(=S)NCc3ccccc3)c2)cc1` (stereo unspecified): the GI50 was > 32.8 µM (inactive) in the test on K562; > 35.2 µM (inactive) in the test on UO-31; > 32 µM (inactive) with HOP-92; > 36.5 µM (inactive) in the test with NCI-H460; > 29.1 µM (inactive) with RPMI-8226; > 33.7 µM (inactive) in the test on T47D. In addition, the GI50 in the test with HT-29 was > 33.7 µM (inactive); in the test with HL-60 it was > 62.5 µM (inactive); in the test on MDA-MB-435, > 34.2 µM (inactive); in the test on SK-MEL-5 it was > 32.6 µM (inactive); with RXF 393 it was 20 µM (inactive); with PC-3, > 32 µM (inactive). The GI50 in the test with OVCAR-5 is > 34.3 µM (inactive); with OVCAR-8 it was > 31.7 µM (inactive); with HCT-116, > 34 µM (inactive); with IGROV-1, > 31.7 µM (inactive); in the test with SNB-19, > 33.3 µM (inactive); in the test with NCI-H23 it was > 35.4 µM (inactive). In addition, the GI50 in the test on Hs-578T was > 29.9 µM (inactive).

For the compound `CCCNC(=O)C(C)(Cl)C(=O)c1ccccc1O` (stereo unspecified), the GI50 in the test on K562, in the test on UO-31, in the test with NCI-H460, in the test with RPMI-8226, in the test on HL-60 and in the test on SK-MEL-5 was > 100 µM (inactive) each time. Further, the GI50 in the test on RXF 393, in the test with LXFL 529, with OVCAR-8, in the test with HCT-116, in the test with IGROV-1 and with SNB-19 was > 100 µM (inactive) each time.

For `C=CCc1cc(OC)c(O)c(C(=O)/C=C/c2ccc(OC)c(OC)c2)c1`, the GI50 is 10.7 µM (inactive) in the test with K562; 15.9 µM (inactive) in the test on UO-31; 30.1 µM (inactive) with NCI-H460; 0.67 µM (active) in the test on RPMI-8226; 16.4 µM (inactive) in the test with HT-29; 11.6 µM (inactive) with HL-60. The GI50 with SK-MEL-5 is 15.3 µM (inactive); in the test on OVCAR-5, 20.1 µM (inactive); in the test on LXFL 529, 20.9 µM (inactive); in the test on OVCAR-8, > 10 µM (inactive); in the test on HCT-116, 14.5 µM (inactive); in the test with IGROV-1, 44.6 µM (inactive). Besides, the GI50 in the test on SNB-19 was 15.6 µM (inactive); with NCI-H23 it was 15 µM (inactive).

Take `C[C@]12CCC(=O)C=C1CC[C@@H]1[C@@H]2CC[C@]2(C)C(=O)/C(=C/c3ccc([N+](=O)[O-])cc3)C[C@@H]12`: the GI50 was 3.35 µM (inactive) with K562; 3.45 µM (inactive) in the test on UO-31; > 100 µM (inactive) with HOP-92; 9.57 µM (inactive) in the test on NCI-H460; 5.52 µM (inactive) in the test with RPMI-8226; 3.48 µM (inactive) with T47D. Moreover, the GI50 is > 100 µM (inactive) in the test on HT-29; 3.51 µM (inactive) with HL-60; 6.04 µM (inactive) in the test on MDA-MB-435; 3.47 µM (inactive) in the test with SK-MEL-5; 13.5 µM (inactive) in the test with RXF 393; 7.87 µM (inactive) in the test on PC-3. Also, the GI50 with OVCAR-5 is > 100 µM (inactive); in the test with OVCAR-8, 45.8 µM (inactive); with HCT-116 it was 9.57 µM (inactive); with IGROV-1, > 100 µM (inactive); in the test on SNB-19 it was > 100 µM (inactive); in the test on NCI-H23 it was 27.8 µM (inactive). In addition, the GI50 in the test on Hs-578T was > 100 µM (inactive).

Regarding `Cc1cc(C)nc(NS(=O)(=O)c2ccc(NC(=O)c3ccc4nc5ccccc5c(Nc5ccc(S(N)(=O)=O)cc5)c4c3)cc2)n1`, the GI50 in the test with K562 was 40 µM (inactive); in the test on UO-31, > 100 µM (inactive); in the test on HOP-92, 51.3 µM (inactive); with NCI-H460 it was > 100 µM (inactive); in the test on RPMI-8226, 64.1 µM (inactive); in the test on T47D, > 100 µM (inactive). In addition, the GI50 in the test with HT-29 is 75.3 µM (inactive); in the test on HL-60 it was 57.9 µM (inactive); with MDA-MB-435, > 100 µM (inactive); with SK-MEL-5 it was > 100 µM (inactive); in the test on RXF 393, 33 µM (inactive); in the test with PC-3 it was > 100 µM (inactive). In addition, the GI50 in the test with OVCAR-5, with OVCAR-8, in the test with HCT-116, with IGROV-1, in the test with SNB-19 and with NCI-H23 was > 100 µM (inactive) in each case. The GI50 in the test with Hs-578T was 91.2 µM (inactive).
